The source of these data is patent publication EP4015040A1, “METHOD FOR TREATING BLOOD DISEASES” (Fundación para la Formación e Investigación Sanitarias de …, priority 2020, dated 2022).

In the test the target is T1, telomerase (Danio rerio, UniProt A2THE9).
T1 sequence (A2THE9 1-1098): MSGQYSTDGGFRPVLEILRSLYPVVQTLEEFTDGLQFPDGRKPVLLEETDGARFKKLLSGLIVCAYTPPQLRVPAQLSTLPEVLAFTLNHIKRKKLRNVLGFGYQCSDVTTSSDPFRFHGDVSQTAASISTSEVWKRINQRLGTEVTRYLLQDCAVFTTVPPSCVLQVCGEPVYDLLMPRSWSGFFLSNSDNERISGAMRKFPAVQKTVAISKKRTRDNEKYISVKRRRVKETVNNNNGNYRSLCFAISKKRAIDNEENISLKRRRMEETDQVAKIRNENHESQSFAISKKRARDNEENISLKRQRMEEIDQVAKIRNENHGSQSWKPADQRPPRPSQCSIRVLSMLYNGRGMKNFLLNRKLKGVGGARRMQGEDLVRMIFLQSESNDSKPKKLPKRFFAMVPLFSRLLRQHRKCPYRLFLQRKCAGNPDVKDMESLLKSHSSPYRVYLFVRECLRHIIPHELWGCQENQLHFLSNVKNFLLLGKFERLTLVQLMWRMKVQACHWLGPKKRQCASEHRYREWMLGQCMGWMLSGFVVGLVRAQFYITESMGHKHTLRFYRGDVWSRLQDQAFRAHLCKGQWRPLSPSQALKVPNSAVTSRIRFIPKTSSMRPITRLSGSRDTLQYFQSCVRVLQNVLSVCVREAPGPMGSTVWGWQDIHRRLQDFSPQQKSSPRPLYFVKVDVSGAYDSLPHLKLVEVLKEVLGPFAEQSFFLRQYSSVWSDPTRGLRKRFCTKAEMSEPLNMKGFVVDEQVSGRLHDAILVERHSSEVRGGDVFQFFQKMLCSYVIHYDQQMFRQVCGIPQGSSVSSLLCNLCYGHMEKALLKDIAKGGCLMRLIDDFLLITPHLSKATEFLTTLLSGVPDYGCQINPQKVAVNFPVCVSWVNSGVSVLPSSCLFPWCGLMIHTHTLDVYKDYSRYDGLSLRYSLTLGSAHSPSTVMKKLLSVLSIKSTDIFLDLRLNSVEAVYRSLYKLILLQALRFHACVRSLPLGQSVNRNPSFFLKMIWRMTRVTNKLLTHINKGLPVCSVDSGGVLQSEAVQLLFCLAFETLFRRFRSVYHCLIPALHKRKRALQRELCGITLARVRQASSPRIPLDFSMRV
Nature of the test: Telomerase activity assay (Q-TRAP) in protein extracts of microinjected larvae. The settings on record: zebrafish; 20 µM microinjected, larvae collected at 48 hpf; read-out: reduction of telomerase activity. Type of test: in vivo.

Take `C/C(=C\C(=O)Nc1ccccc1C(=O)O)c1ccc2ccccc2c1` [BIBR1532]: the inhibition at 20 µM was over 50%.
